From US20050004000A1, “Oral absorbed drugs” (priority 2001, published 2005)
Like-named read-outs stand apart in the source and are kept apart here.

Assays:
[1] = Method: (§1) The experiment was carried out with a single mice or rat per compound (per metabolic cage) and it was repeated 7 times with rats and twice with mice using the protocol below. The fluorescent feature of doxorubicin enables the observation of its presence in the urine following different modes of administration.
The experiments were repeated with mice.

F10.9 melanoma cell line = assay: Inhibition of proliferation of cancer cells in vitro, crystal violet staining; assay type: cell-based; settings: F10.9 melanoma cells, 96 hours, crystal violet staining (FIG. 2); read-out: IC50 (the concentration at which cell growth is inhibited by 50%)
Method: (§2) The efficacy of native Dox and FMS-Dox on the inhibition of proliferation of cancer cells was tested in vitro with F10.9 melanoma cell line. On day (−1) cells, were seeded in a 24-well plate (5×10^3 cells/ml/well). On day (0), cells were incubated with Dox and FMS-Dox at logarithmic dilutions from 100 μM to 0.001 μM. Survival of cells at 96 hours was determined, using the crystal violet staining method. Optical density (OD) was measured at 620 nm in an ELISA reader. The OD reading was correlated to % viable cells. When the cells were untreated the absorbance was at a maximum. IC50 (the concentration at which cell growth is inhibited by 50%) was determined. The results in FIG. 2 show IC50 values of 0.03 μM and 0.09 μM for native Dox and FMS-Dox, respectively. […] The was confirmed by HPLC analysis whereby the compound found in the growing cell medium after 96 hr corresponded to native doxorubicin.

[2] = rats; Dox 10 μg/g, Fms-Dox 15 μg/g I.P.
Method: as §1
Urine was collected several times after administration and the fluorescence emission was measured by a fluorometer. The urine collected from the untreated groups was used as a blank.
Urine was collected at 1.25, 2.5, 4 and 6 hours after administration and fluorescence intensity was measured in a fluorometer (SPECTRAmax and GEMINI of Molecular Devices Sunnyvale Fluorometer, CA, USA). Since doxorubicin is a fluorescent material, when it absorbs light energy at a wavelength of 488 nm (excitation), it undergoes an electronic state change and instantaneously emits light at 595 nm (emission). The Relative Fluorescence Units (RFU) shown in FIG. 1 indicate the peaks of light emitted at 595 nm resulting from the absorption of Dox at 488 nm.

[3] = system: acetylcholine-induced abdominal constriction; assay: Acetylcholine-induced abdominal constriction in mice (antinociceptive activity); assay type: in vivo; settings: for inhibition of acetylcholine-induced abdominal constriction, dose response (FIG. 3): 30 minutes after SC, Fmoc-Met-enkephalin 50 and 25 mg/kg, p<0.05; for antinociceptive activity in the mouse: comparable doses
From the text: The method used in the experiments herein for evaluating the antinociceptive properties of Fmoc-Met-enkephalin is a standard method for evaluating compounds having analgesic activity such as non-steroidal anti-inflammatory agents, opioids, and other analgesics, and consists in administering acetylcholine I.P. to mice, treating the mice with the test compound and evaluating the inhibition of abdominal constriction induced by the acetylcholine.
Thus, 120 healthy CD-1, Swiss derived, albino male mice (obtained from Charles River Breeding Labs, Wilmington, Mass.) were weighed, examined for health and equally distributed into one of the 12 test groups shown in Table 1.
SC administration was carried out with a standard syrine and needle and given in a volume of 10 ml per kg. Oral administration was performed using a standard curved oval gavage needle and given in a volume of 10 ml per kg. Thirty minutes after administration of the appropriate treatment, acetylcholine (5.5 mg/kg) was injected I.P. The mice were then placed in large plastic boxes and observed for the occurrence of a single abdominal constriction (defined as a wave of construction and elongation passing caudally along the abdominal wall, accompanied by a twisting of the trunk and followed by extension of the hind limbs). […] Acetylcholine-induced abdominal constriction was repeated again at approximately 120 minutes after test compound administration.
Observations included gross evaluation of the skin and fur, eyes and mucous membranes, respiratory, circulatory, autonomic and central nervous system, somatomotor activity and behavioral patterns. Particular attention was directed to observation of tremors, convulsions, salivation, diarrhea, sleep and coma. A non-parametric analysis of quantal data (Fisher exact test) was used to determine statistical significance of results.

[4] = HPLC analysis of growing cell medium (cleavage of Fms-Dox); assay type: in vitro ADME; settings: growing cell medium after 96 hr
Method: as §2

[5] = system: Escherichia coli (E. coli strain N-4156-W.T); assay: Antibacterial potency: E. coli replication, absorbance at 600 nm; assay type: cell-based; settings: 37° C., L.B. medium, O.D. 600 nm
Method: A suspension of Escherichia coli (E. coli strain N-4156-W.T, 1% V/V in L.B. medium) is divided into plastic tubes (0.5 ml per tube) and incubated in a shaking water bath at 37° C., in either the absence or the presence of increasing concentrations of gentamicin (0.02-50 μM) and increasing concentrations of (Fms)3-gentamicin (0.02-50 μM). E. coli replication is evaluated by measuring the absorbance at 600 nm. Incubation is terminated when O.D600 nm in the tubes containing no gentamicin reaches a value of 0.6±0.1. Under our assay conditions, native gentamicin inhibited half-maximally E. coli replication at a concentration of 0.22±0.02 μM (0.1 μg/ml).

For COc1cccc2c1C(=O)c1c(O)c3c(c(O)c1C2=O)C[C@@](O)(C(=O)CO)C[C@@H]3O[C@H]1C[C@H](N)[C@H](O)[C@H](C)O1 [native Dox, Doxorubicin], the “absorption following I.P. administration (urine fluorescence)” value ([1]; mice, I.P.) was “absorbed”, the “oral absorption (urine fluorescence)” value ([1]; mouse, in vivo, po) was “orally nonabsorbed” and the IC50 (F10.9 melanoma cell line) was 30 nM. The “absorption following I.P. administration (urine fluorescence)” value [2] was “absorbed”.

For (X1)Tyr-Gly-Gly-Phe-Met [Fmoc-Met-Enk], the “# mice abdominal construction” value ([3]; 6.25 mg/kg SC, 30 minutes) was 9/10, the “% inhibition” value ([3]; 6.25 mg/kg SC, 30 minutes) was 10% and the “# mice abdominal construction” value ([3]; 6.25 mg/kg SC, 120 minutes) was 8/10. For the same compound, the “% inhibition” value ([3]; 6.25 mg/kg SC, 120 minutes) was 20%, the “# mice abdominal construction” value ([3]; 12.5 mg/kg PO, 30 minutes) was 6/10 and the “% inhibition” value ([3]; 12.5 mg/kg PO, 30 minutes) was 40%. For the same compound, the “# mice abdominal construction” value ([3]; 12.5 mg/kg PO, 120 minutes) was 10/10, the “# mice abdominal construction” value ([3]; 12.5 mg/kg SC, 30 minutes) was 7/10 and the “% inhibition” value ([3]; 12.5 mg/kg SC, 30 minutes) was 30%. The “# mice abdominal construction” value ([3]; 12.5 mg/kg SC, 120 minutes) was 8/10, the “% inhibition” value ([3]; 12.5 mg/kg SC, 120 minutes) was 20% and the “# mice abdominal construction” value ([3]; 25 mg/kg PO, 30 minutes) was 6/10. For the same compound, the “% inhibition” value ([3]; 25 mg/kg PO, 30 minutes) was 40%, the “# mice abdominal construction” value ([3]; 25 mg/kg PO, 120 minutes) was 10/10 and the “# mice abdominal construction” value ([3]; 25 mg/kg SC, 30 minutes) was 6/10. For the same compound, the “% inhibition” value ([3]; 25 mg/kg SC, 30 minutes) was 40%, the “# mice abdominal construction” value ([3]; 25 mg/kg SC, 120 minutes) was 6/10 and the “% inhibition” value ([3]; 25 mg/kg SC, 120 minutes) was 40%. The “activity at 120 minutes after drug administration” value ([3]; 25 mg/kg SC, 120 minutes) was “active”, the “# mice abdominal construction” value ([3]; 50 mg/kg PO, 30 minutes) was 8/10 and the “% inhibition” value ([3]; 50 mg/kg PO, 30 minutes) was 20%. The “# mice abdominal construction” value ([3]; 50 mg/kg PO, 120 minutes) was 6/10, the “% inhibition” value ([3]; 50 mg/kg PO, 120 minutes) was 40% and the “# mice abdominal construction” value ([3]; 50 mg/kg SC, 30 minutes) was 5/10. The “% inhibition” value ([3]; 50 mg/kg SC, 30 minutes) was 50%, the “# mice abdominal construction” value ([3]; 50 mg/kg SC, 120 minutes) was 9/10 and the “% inhibition” value ([3]; 50 mg/kg SC, 120 minutes) was 10%. The “inhibition of acetylcholine-induced abdominal constriction (statistical significance)” value ([3]; 50 and 25 mg/kg SC and 25 and 12.5 mg/kg PO, 30 minutes) was “statistically significant inhibition”, the “inhibition of acetylcholine-induced abdominal constriction, dose response (FIG. 3)” value ([3]; Met-enkephalin 50 mg/kg) was “statistically significant” and the “antinociceptive activity in the mouse” value ([3]; SC or PO) was “significant antinociceptive activity”. For the same compound, the “signs of CNS depression or sedation” value ([3]; mice, during the experimental period) was “did not show signs of CNS depression or sedation”, the “statistically significant activity compared to Fmoc-Ala” value ([3]; oral administration, any dose, 120 minutes) was “did not show statistically significant activity” and the “inhibition of acetylcholine-induced abdominal constriction after oral administration (FIG. 4)” value ([3]; orally, 25 and 12.5 mg/kg after 30 minutes and 50 mg/kg after 120 minutes) was “statistically significant inhibition”.

With Fms-doxorubicin the “cleavage in the cell medium (HPLC analysis)” value [4] was “full recovery of the native doxorubicin” and the IC50 (F10.9 melanoma cell line) was 90 nM.

For “Tyr-Gly-Gly-Phe-Met [Met-Enk, reference compound]”, the “# mice abdominal construction” value ([3]; 50 mg/kg PO, 30 minutes) was 9/10, the “% inhibition” value ([3]; 50 mg/kg PO, 30 minutes) was 10% and the “# mice abdominal construction” value ([3]; 50 mg/kg PO, 120 minutes) was 9/10. For the same compound, the “% inhibition” value ([3]; 50 mg/kg PO, 120 minutes) was 10%, the “# mice abdominal construction” value ([3]; 50 mg/kg SC, 30 minutes) was 8/10 and the “% inhibition” value ([3]; 50 mg/kg SC, 30 minutes) was 20%. For the same compound, the “# mice abdominal construction” value ([3]; 50 mg/kg SC, 120 minutes) was 10/10, the “inhibition of acetylcholine-induced abdominal constriction, dose response (FIG. 3)” value ([3]; Met-enkephalin 50 mg/kg) was “not significantly active” and the “activity after SC or PO administration” value ([3]; Fmoc-Ala 25 mg/kg, Met-enkephalin 50 mg/kg, SC or PO) was “not active”. The “antinociceptive activity in the mouse” value ([3]; SC or PO) was “neither Met-enkephalin nor Fmoc-Ala is active”.

In the case of gentamicin [native gentamicin], the “concentration inhibiting half-maximally E. coli replication” value [5] is reported as 0.1 µg/mL and the IC50 ([5]; read-out: concentration inhibiting half-maximally E. coli replication) is reported as 220 ± 20 nM.
